Source: US12187672B2, “1,2-diacylglycerol compound, preparation method therefor, and immunomodulator containing same as active ingredient” (ENZYCHEM LIFESCIENCES CORPORATION, priority 2018, dated 2025)
Several values for one entry are separate records, joined by “and”; a condition that tells them apart may be missing. Equal values may be shown once.

How the values were obtained:
[1] = tested on: IL-6; test: LPS-induced IL-6 secretion reduction in RAW264.7 cells (ELISA); format: cell-based, mouse; settings: for IL-6 concentration (average ± deviation): sample 100 μg/ml 1 h, then LPS 1 μg/ml 24 h
Procedure, shortened: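 Mouse RAW264.7 macrophages in DMEM/10% FBS were plated at 5×10^4 cells/ml, rested for 15 h, treated with compound for 1 h, then stimulated with 1 μg/ml LPS for 24 h at 37 °C. IL-6 in the supernatant was measured by sandwich ELISA (HRP, OD 450 nm) and expressed as reduction rate or concentration.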

[2] = tested on: STAT3; test: IL-6-induced STAT3 activity, SEAP expression in HEK-Blue IL-6 cells; format: cell-based; settings: HEK-Blue IL-6 cells; for STAT3 activity_SEAP expression(%) (average ± deviation): sample 100 μg/ml 1 h, then IL-6 5 ng/ml 24 h, negative control = 100
Procedure, shortened: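 HEK-Blue IL-6 reporter cells at 1×10^5 cells/ml in DMEM with 10% FBS were exposed to compound for 1 h, then IL-6 (5 ng/ml) for 24 h at 37 °C. STAT3-driven SEAP in supernatant was detected with Quanti-Blue (1:10, ~30 min, 37 °C) at 650 nm.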

[3] = tested on: STAT6; test: IL-4-induced STAT6 activity, pGL4-STAT6 luciferase reporter in A549 cells; format: cell-based; settings: sample 100 μg/ml 1 h
Procedure, shortened: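 A549 cells transiently transfected with pGL4-STAT6 reporter (24 h), pretreated with compound 1 h, then stimulated with IL-4 (2 ng/ml or 10 ng/ml) for 20 h. Cells lysed and luciferase luminescence read as STAT6 activity.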

[4] = tested on: Aeruginosa K (PAK) of the genus Psuedomonas; test: Infection inhibition test in mouse model of lung infection with bacteria (CFU in BALF); format: in vivo, Balb/c mice; settings: 250 mg/kg oral
Experimental: For getting mice model whose lung are infected with bacteria, 12-week old Balb/c male mice were purchased from Koatech Corporation (South Korea) and maintained in certain pathogen-free facilities under moderate temperature and lights cycles. For obtain bacteria to induce lung infection, Aeruginosa K (PAK) of the genus Psuedomonas was incubated in LB broth or LB agar plate overnight at 37° C., and then the culture solution was centrifuged at 13,000×g for 2 minutes to obtain a bacterial pellet. Thereafter, the bacterial pellet was suspended in phosphate buffered saline (PBS), and the optical density of the serial dilution was measured and plated on an agar plate, so that bacterial inoculum having a colony forming unit (CFU) was obtained. A bacterial inoculum solution for infection was prepared at a concentration of 1×10^5 CFU per 20 μl, and the prepared PAK bacterial inoculum (1×10^5 CFU per mouse in 20 μl PBS) was administered to a total of 8 12-week-old Balb/c mice by nasal injection. Four of the PAK-administered groups were orally administered the compound of the present invention (EC_A21) at 250 mg/kg, and PBS was administered to the control group. After 4 hours, samples of bronchoalveolar lavage fluid (BALF) from P. aeruginosa-infected mice were collected, and the collected BALF samples were diluted 1:1000 with PBS. The diluted samples were plated on LB agar and then incubated overnight at 37° C. CFU levels in BALF were confirmed by measuring the number of surviving bacteria by a plate count method. The results are shown in Table 8, FIG. 7 and FIG. 8 below.

[5] = then IL-4 (2 ng/ml) 20 h, Table 9
[6] = then IL-4 (10 ng/ml) 20 h, Table 10

SMILES	IL-6 concentration (average ± deviation) ([1]; Table 3) [pg/µL]	STAT6 activity_Luciferase activity (average ± deviation) [3, 6]	other results
CCCCC/C=C\C/C=C\CCCCCCCC(=O)OC(COC(C)=O)COC(=O)CCCCCCCCCCCCCCC (stereo not shown) [EC-18, 1-palmitoyl-2-linoleoyl-3-acetylglycerol, reference compound]	0.491 ± 0.063	18878.0 ± 500.8	decrease of IL-6 secretion/expression compared to the LPS-treated group ([1]; 100 μg/ml): about 30%; IL-6 concentration (average ± deviation) ([1]; Table 2): 194 ± 11 pg/µL; decrease of STAT3 activity compared to the IL-6 cytokine-treated group ([2]; 100 μg/ml): about 25%; STAT3 activity_SEAP expression(%) (average ± deviation) [2]: 173.0 ± 7.9%; STAT6 activity_Luciferase activity (average ± deviation) [3, 5]: 462.5 ± 161.7
CCCCC/C=C\C/C=C\CCCCCCCC(=O)OC(COC(=O)CCCCCCCCCCCCCCC)COC(C)C (stereo not shown) [EC_A21]			IL-6 concentration (average ± deviation) ([1]; Table 2): 176 ± 2 pg/µL; STAT3 activity_SEAP expression(%) (average ± deviation) [2]: 224.1 ± 22.4%; bacterial CFU in BALF, average ± deviation ([4]; PAK 1×10^5 CFU nasal, BALF after 4 hours, 4 Balb/c mice): 14.0 ± 6.0 10^3 CFU/ml; bacterial CFU in BALF, individual mouse ([4]; PAK 1×10^5 CFU nasal, BALF after 4 hours, Balb/c mice, 250 mg/kg): 8.0 10^3 CFU/ml and 19.0 10^3 CFU/ml and 20.0 10^3 CFU/ml and 14.0 10^3 CFU/ml; bacterial CFU in BALF versus PAK alone group (in words) ([4]; fourth hour after PAK administration): significantly lower than that of the PAK alone group; STAT6 activity_Luciferase activity (average ± deviation) [3, 5]: 880.0 ± 50.0
CCCCC/C=C\C/C=C\CCCCCCCC(=O)OC(COC(=O)CC)COC(=O)CCCCCCCCCCCCCCC (stereo not shown) [EC_A78]	0.708 ± 0.086	19208.7 ± 2129.6	
CCCCC/C=C\C/C=C\CCCCCCCC(=O)OC(COC(=O)CCCCCCCCCCCCCCC)COC(=O)C1CC1 (stereo not shown) [EC_A79]	0.652 ± 0.145	20037.7 ± 786.0	
CCCCC/C=C\C/C=C\CCCCCCCC(=O)OC(COC(=O)CCCCCC)COC(=O)CCCCCCCCCCCCCCC (stereo not shown) [EC_A83]	0.658 ± 0.070	18788.2 ± 2805.4	
CCCCC/C=C\C/C=C\CCCCCCCC(=O)OC(COC(=O)CCC)COC(=O)CCCCCCC (stereo not shown) [EC_A85]	0.741 ± 0.071	19878.2 ± 4338.5	
CCCCC/C=C\C/C=C\CCCCCCCC(=O)OC(COC(=O)CCCC)COC(=O)CCCCCCC (stereo not shown) [EC_A86]	0.796 ± 0.045	18158.0 ± 3182.4	
CCCCC/C=C\C/C=C\CCCCCCCC(=O)OC(COC(=O)CC)COC(=O)CCCCCCC (stereo not shown) [EC_A87]	0.705 ± 0.158	17258.7 ± 3007.1	
CCCCC/C=C\C/C=C\CCCCCCCC(=O)OC(COC(=O)CCCCCCC)COC(=O)C(C)C (stereo not shown) [EC_A88]	0.792 ± 0.086	17409.5 ± 1849.8	
CCCCCC=CCC=CCCCCCCCC(=O)OC(COC(=O)CCCCCCC)COC(=O)C(C)(C)C (stereo not shown) [EC_A89]	0.736 ± 0.097	18635.5 ± 846.4	
CCCCC/C=C\C/C=C\CCCCCCCC(=O)OC(COC(=O)CC)COC(=O)CCCCCCCCCCC (stereo not shown) [EC_A91]	0.752 ± 0.068	22036.0 ± 4089.4	
CCCCC/C=C\C/C=C\CCCCCCCC(=O)OC(COC(=O)CCC)COC(=O)CCCCCCCCCCC (stereo not shown) [EC_A92]	0.800 ± 0.038	17237.2 ± 317.7	
CCCCC/C=C\C/C=C\CCCCCCCC(=O)OC(COC(=O)CCCC)COC(=O)CCCCCCCCCCC (stereo not shown) [EC_A93]	0.765 ± 0.055	15562.5 ± 900.7	
CCCCC/C=C\C/C=C\CCCCCCCC(=O)OC(COC(=O)CCCCCCCCCCC)COC(=O)C(C)CC (stereo not shown) [EC_A96]	0.788 ± 0.006	14593.2 ± 2168.7	
CCCCC/C=C\C/C=C\CCCCCCCC(=O)OC(COC(=O)CC)COC(=O)CCCCCCCCC (stereo not shown) [EC_A97]	0.745 ± 0.015	16787.0 ± 4102.6	
CCCCC/C=C\C/C=C\CCCCCCCC(=O)OC(COC(=O)CCC)COC(=O)CCCCCCCCC (stereo not shown) [EC_A98]	0.619 ± 0.036	14727.2 ± 129.2	
CCCCC/C=C\C/C=C\CCCCCCCC(=O)OC(COC(=O)CCCC)COC(=O)CCCCCCCCC (stereo not shown) [EC_A99]	0.666 ± 0.075	17407.0 ± 1347.6	
CCCCC/C=C\C/C=C\CCCCCCCC(=O)OC(COC(=O)CCCCCCCCC)COC(=O)C(C)C (stereo not shown) [EC_A100]	0.749 ± 0.054	14212.0 ± 1008.8	
CCCCC/C=C\C/C=C\CCCCCCCC(=O)OC(COC(=O)CCCCCCCCC)COC(=O)C(C)(C)C (stereo not shown) [EC_A101]	0.645 ± 0.057	19438.7 ± 580.2	
CCCCC/C=C\C/C=C\CCCCCCCC(=O)OC(COC(=O)CCCCCCCCC)COC(=O)C(C)CC (stereo not shown) [EC_A102]	0.738 ± 0.070	18719.2 ± 2558.5	
